# Values quoted from earlier work, collected in patent publication US20130292614A1, “F[…] AS […]” (3M INNOVATIVE PROPERTIES COMPANY, priority 2011, published 2013).
# Conditions: inhalation; 2.5 to 3 hour; cited from earlier work
compound,measurement,value
FC(F)(F)C1(F)OC1(F)F (stereo not shown) [C3 perfluorooxirane],acute lethal concentration (ALC),200 ppm
